Measured values taken from patent publication US9232804B2, “Compositions and methods for sterilizing bioscaffolds” (KNU University-Industry Cooperation Foundation, priority 2012, dated 2016).

Experiments:
porcine fibroblasts [1] = experiment: MTT cell attachment assay on sterilized scaffolds; conditions: incubated for 3 hours to attach, viable for 16 hours
Description: Then, a 100 μL aliquot of DMEM in which porcine fibroblasts were suspended was added to each scaffold disc such that a total of about 50,000 fibroblasts were seeded on the plates. Then, the plate was incubated at 37° C. in 5% CO2 atmosphere for 3 hours to allow the fibroblasts to attach to scaffold substrates. The scaffold substrates were carefully transferred to another well such that the cells attached to the scaffold would remain undisturbed. Then, the plate was incubated at 37° C. in 5% CO2 atmosphere for 12 hours. Then, 10 μL of MTT solution (3-[4,5-dimethylthiazol-2yl]-2,5-diphenyltetrazolium bromide; 5 mg/ml, Sigma Aldrich) dissolved in PBS was added to each well and incubated at 37° C. in 5% CO2 atmosphere for 5 hours. Then, the media were removed and 200 μL of dimethyl sulfoxide (DMSO) was added to each well to dissolve the formazan by pipetting. After incubation for 10 minutes, 100 μL of solutions from the respective substrate wells were pipetted into another 96-well plate. Finally, the absorbance of the samples was determined using a spectrophotometer with a test wavelength of 570 nm and a reference wavelength of 630 nm.

porcine liver scaffolds = experiment: Sterilization effect on scaffolds according to culture time (DMEM + 10% FBS, Columbia blood agar)
Description: First, the porcine liver scaffolds prepared in Example 1 were divided into two groups: an experimental group in which the scaffolds were immersed in the slightly acidic electrolyzed water prepared in Example 2 to be sterilized for […], 60 minutes, 90 minutes, and 120 minutes, respectively; and a control group in which the scaffolds were treated with PBS, peracetic acid (PAA) solution (Sigma-Aldrich, St Louis, Mo., USA), and 70% ethanol solution (Daejung Chemicals and Metals, Seoul, Korea), instead of the slightly acidic electrolyzed water. The slightly acidic electrolyzed water was changed every 15 minutes to be the best fit for sterilization of the porcine liver scaffolds, and the sterilized porcine liver scaffolds were washed with PBS once.
The porcine liver scaffolds of the experimental group and the control group treated by the method described in the above section 3-1 were incubated in Dulbecco's Modified Eagle's Medium (DMEM; Invitrogen, Carlsbad, Calif., USA) supplemented with 10% fetal bovine serum (FBS, Hyclone, Logan, Utah, USA) at 37° C. and on Columbia blood agar medium (Fluka Chemie GmbH) for 96 hours and then checked periodically for signs of infection. In the event of infection, the discoloration and turbidity of medium increases, and the growth of cell colonies is observed on blood agar medium.
In Table 2, (−) represents that no symptoms of infection were observed; (+) represents that symptoms of infection were observed; (x) represents that symptoms of infection were observed before observation time; native liver, decellularized liver, and PBS-treated liver were used as positive controls; and medium without scaffolds was used as the negative control.

porcine fibroblasts [2] = experiment: Ki-67 immunostaining of fibroblasts in conditioned medium; format: cell-based; conditions: conditioned medium from treated scaffolds
Description: Conditioned and control media were prepared by the method described in Example 6-1, and about 5000 porcine fibroblasts were cultured on gelatin-coated 4-well plates for 24 hours. Then, the medium was switched to conditioned or control medium. The medium was changed every 24 hours. The proliferation potential of the soluble factors eluted from the scaffolds was checked after incubation for 24 hour and 48 hours. Cells were immunostained using anti-Ki-67 antibody (Abcam, Cambridge, UK). Texas Red goat anti-rabbit IgG (Invitrogen) was used as a secondary antibody. Nuclei were counterstained using a mounting medium containing DAPI. The percentage of Ki-67 positive cells was calculated as the ratio of average positive Ki-67 cells relative to 250 DAPI-stained cells.

[3] = tested on: DNA in porcine liver scaffolds; experiment: DNA content of treated scaffolds (removal of immunogenic antigens); conditions: relative to untreated scaffolds
Description: First, lyophilized samples of native porcine liver slices, scaffolds decellularized by the method of Example 1, porcine liver scaffolds treated with 0.1% peracetic acid solution (PAA; Sigma-Aldrich, St Louis, Mo., USA), PBS, 70% ethanol (Daejung Chemicals and Metals, Seoul, Korea), and slightly acidic electrolyzed water were prepared. Then, DNA was extracted from the lyophilized samples using the DNeasy Blood and Tissue Kit (Qiagen, Hilden, Germany).

porcine skin fibroblasts = experiment: Cytotoxicity test (MTT) with conditioned medium from sterilized scaffolds; format: cell-based; conditions: conditioned medium from treated scaffolds
Description: Conditioned cell culture media were prepared from scaffolds treated with the slightly acidic electrolyzed water of the present invention. In brief, serum-free DMEM cell culture medium was incubated overnight with each SAEW-treated scaffold at a concentration of 0.2 g/ml media at 37° C. in a shaker at 70 rpm/min. Cell culture media without scaffolds were prepared by the same method as above to provide unconditioned controls. After incubation, the scaffolds were removed and the medium was filtered through a 0.4 μm filter to prepare culture medium containing soluble factors released from extracellular matrix.
The medium in which fibroblasts were incubated was aspirated, followed by the addition of conditioned or unconditioned culture medium containing 10% FBS and 1% penicillin-streptomycin (Gibco, Grand Island, N.Y., USA) to the well with attached fibroblasts, and the plate was incubated 37° C. in 5% CO2 atmosphere for 24 hours and 48 hours (the culture medium was changed every 24 hours).

[4] = Glycosaminoglycan content, dimethyl methylene blue dye-binding assay (Blyscan kit); set-up: species or system porcine; conditions: for content of glycosaminoglycans, % of that in untreated and decellularized scaffolds: relative to untreated and decellularized scaffolds; for content of glycosaminoglycans, % of that in untreated scaffolds: relative to untreated scaffolds
Description: To evaluate the effects of the slightly acidic electrolyzed water of the present invention on the content of glycosaminoglycans, the content of glycosaminoglycans in decellularized liver (untreated scaffolds), scaffolds treated with PBS, and scaffolds treated with the slightly acidic electrolyzed water of the present invention were determined using a dimethyl methylene blue dye-binding assay kit (Blyscan kit; Biocolor Ltd) according to the manufacturer's instructions. First, 5 mg of lyophilized sample was homogenized and solubilized. A 100 μL aliquot from each sample lysate was added to 1 mL of dimethyl methylene blue solution and agitated on a shaker at 25° C. for 30 minutes. The resulting solutions were then centrifuged at 10,000×g for 10 minutes to collect the GAG dye complex, and the supernatants were discarded. The remaining pellet was suspended in 1 mL of the provided dissociation reagent, and the absorbance was measured at 655 nm. Chondroitin sulfate provided in the kit was used as a standard of glycosaminoglycans.

[5] = tested on: collagen in porcine liver scaffolds; experiment: Collagen content, Sircol collagen dye-binding assay; conditions: relative to native liver
Description: To evaluate the effects of the slightly acidic electrolyzed water of the present invention on the content of collagen, the total collagen levels in native liver, decellularized scaffolds (untreated), scaffolds treated with PBS, PAA, or ethanol, and scaffolds treated with the slightly acidic electrolyzed water of the present invention were determined using a Sircol collagen dye-binding assay kit (Biocolor Ltd.) according to the manufacturer's instructions.
In more detail, lyophilized samples of native porcine liver slices, scaffolds decellularized by the method of Example 1, porcine liver scaffolds treated with PAA, PBS, ethanol, and slightly acidic electrolyzed water, respectively, were prepared. Then, total acid pepsin-soluble collagen was obtained after incubation in 0.5 M acetic acid containing 0.1 mg/ml pepsin. A 100 μL aliquot of acid neutralizing reagent was added to the acid-pepsin extract. Then, the extract was centrifuged after an overnight incubation at 4° C. Then, 1 mL Sircol dye reagent was added to the pellet and incubated at 25° C. for 30 minutes. After centrifugation, the pellet was washed with acid-salt wash reagent and suspended in 1 mL of alkaline reagent. Then, the absorbance was measured at 540 nm.

For `CC(=O)OO` [PAA, peracetic acid], the “seeded fibroblasts attached to scaffolds and remaining viable” value (porcine fibroblasts [1]) was 71.50±1.95%, the symptoms of infection (porcine liver scaffolds; Columbia blood agar, 6 hour) was “−” and the symptoms of infection (porcine liver scaffolds; Columbia blood agar, 24 hour) was “−”. For the same compound, the symptoms of infection (porcine liver scaffolds; Columbia blood agar, 36 hour) was “−”, the symptoms of infection (porcine liver scaffolds; Columbia blood agar, 48 hour) was “−” and the symptoms of infection (porcine liver scaffolds; Columbia blood agar, 60 hour) was “−”. The symptoms of infection (porcine liver scaffolds; Columbia blood agar, 72 hour) was “−”, the symptoms of infection (porcine liver scaffolds; Columbia blood agar, 96 hour) was “−” and the symptoms of infection (porcine liver scaffolds; DMEM + 10% FBS, 6 hour) was “−”. The symptoms of infection (porcine liver scaffolds; DMEM + 10% FBS, 24 hour) was “−”, the symptoms of infection (porcine liver scaffolds; DMEM + 10% FBS, 36 hour) was “−” and the symptoms of infection (porcine liver scaffolds; DMEM + 10% FBS, 48 hour) was “−”. For the same compound, the symptoms of infection (porcine liver scaffolds; DMEM + 10% FBS, 60 hour) was “−”, the symptoms of infection (porcine liver scaffolds; DMEM + 10% FBS, 72 hour) was “−” and the symptoms of infection (porcine liver scaffolds; DMEM + 10% FBS, 96 hour) was “−”. For the same compound, the “percentage of Ki-67 positive cells compared to the control group” value (porcine fibroblasts [2]) was “no significant difference”, the “efficiency for removing the DNA content” value [3] was 93.13±2.82% and the “proliferation rate of fibroblasts compared to unconditioned medium” value (porcine skin fibroblasts; incubation for 24 hours) was 119.18±5.6%. For the same compound, the “proliferation rate of fibroblasts compared to unconditioned medium” value (porcine skin fibroblasts; incubation for 48 hours) was 127.43±6.68%, the “content of glycosaminoglycans, % of that in untreated and decellularized scaffolds” value [4] was 56±1.04% and the “content of glycosaminoglycans, % of that in untreated scaffolds” value [4] was 43±0.80%.
For `CCO` [Ethanol, ethanol], the “seeded fibroblasts attached to scaffolds and remaining viable” value (porcine fibroblasts [1]) was 64.86±3.48%, the symptoms of infection (porcine liver scaffolds; Columbia blood agar, 6 hour) was “−” and the symptoms of infection (porcine liver scaffolds; Columbia blood agar, 24 hour) was “−”. For the same compound, the symptoms of infection (porcine liver scaffolds; Columbia blood agar, 36 hour) was “−”, the symptoms of infection (porcine liver scaffolds; Columbia blood agar, 48 hour) was “−” and the symptoms of infection (porcine liver scaffolds; Columbia blood agar, 60 hour) was “+”. The symptoms of infection (porcine liver scaffolds; DMEM + 10% FBS, 6 hour) was “−”, the symptoms of infection (porcine liver scaffolds; DMEM + 10% FBS, 24 hour) was “−” and the symptoms of infection (porcine liver scaffolds; DMEM + 10% FBS, 36 hour) was “−”. For the same compound, the symptoms of infection (porcine liver scaffolds; DMEM + 10% FBS, 48 hour) was “−”, the symptoms of infection (porcine liver scaffolds; DMEM + 10% FBS, 60 hour) was “−” and the symptoms of infection (porcine liver scaffolds; DMEM + 10% FBS, 72 hour) was “+”. For the same compound, the “content of collagen, % of that in native liver” value [5] was 87.54±4.07%, the “percentage of Ki-67 positive cells compared to the control group” value (porcine fibroblasts [2]) was “no significant difference” and the “proliferation rate of fibroblasts compared to unconditioned medium” value (porcine skin fibroblasts; incubation for 24 hours) was 109.22±5.58%. The “proliferation rate of fibroblasts compared to unconditioned medium” value (porcine skin fibroblasts; incubation for 48 hours) was 113.95±6.67%, the “content of glycosaminoglycans, % of that in untreated and decellularized scaffolds” value [4] was 64.16±1.92% and the “content of glycosaminoglycans, % of that in untreated scaffolds” value [4] was 49.1±1.47%.
